Laboratory results published in US9808439B2 (Macau University of Science and Technology, priority 2015, dated 2017).
Read-outs that look alike come from different tables or passages of the source.

Key:
[1] = test system: A549/T cells; experiment: SRB cell cytotoxicity assay in A549/T; type: cell-based, human; conditions: for IC50: Homo sapiens
[2] = test system: A2780/T cells; experiment: SRB cell cytotoxicity assay in A2780/T; conditions: for fold reversal / IC50: A2780/T; for IC50: read-out: IC50 ± SD
Experimental: Sulphorhodamine B (SRB) assays were carried out as previously described to assess cell density, based on sensitive measure of total cellular protein, which performed similarly compared with other proliferation assays such as MTT assay. Briefly, cells were seeded into flat bottomed 96-well plates at an initial density of 7.5×10^3 per well before treatment. […] After removing the medium, cells were fixed in 10% trichloroacetic acid for 1 h at 4° C. and then washed with water five times. 0.4% SRB dissolved in 1% v/v acetic acid was added and incubated 30 mm for staining. The cells were quickly washed with 1% acetic acid and left to dry overnight. The protein bound SRB was solubilized by adding 200 μl 10 mM Tris buffer per well and measured at wavelengths 490 nm using a plate reader (Spectra MAX 250; Molecular Devices, Sunnyvale, Calif.).

[3] = test system: A2780/T cells; experiment: Combination index, Chou-Talalay method (CalcuSyn); type: cell-based, human
Experimental: Combination index (CI) was calculated to quantitatively depict synergistic ([…], additive (CI=1), or antagonistic (CI>1) effect. With the use of CalcuSyn software v. 2.1 (Bio-soft), synergy is further refined as synergism (combination index=0.3-0.7), strong synergism (combination index=0.1-0.3), and very strong synergism (combination index<0.1).

[4] = test system: A2780/T cells; experiment: Apoptosis by Annexin-V/PI double staining; type: cell-based, human; conditions: 7.53 μM tangeretin or 0.94 μM PTX alone
Experimental: After treatment, 1×10^6 cells were collected, washed and suspended in 100 μl of binding buffer (10 mM N-2-hydroxyethylpiperazine-N,-2-ethanesulfonic acid/NaOH, 140 mM NaCl, 2.5 mM CaCl2, pH 7.4). Apoptotic cells were identified by double supravital staining with 5 μl recombinant FITC (fluorescein isothiocyanate)-conjugated Annexin-V and 5 μl PI (50 μg/ml). The cells were stained for […] at room temperature in the dark, and analyzed by fluorescence-activated cell sorting cater-plus flow cytometry. Data acquisition and analysis were performed in BD FACS Aria with FlowJo software.

[5] = test system: A2780 cells; experiment: Cell cycle analysis by flow cytometry in A2780; type: cell-based, human; conditions: A2780, PTX 0.01 μM
Experimental: (§1) A2780/T cells were harvested after 24-hours, 48-hour, or 72-hour treatment and washed twice with ice-cold PBS. The cells were fixed and permeabilized with 70% ice-cold ethanol overnight at 4° C. or −20° C. for 2 h. After one additional wash in PBS, cells were stained with a staining solution containing PI ([…]) and RNase A (250 μg/ml) for […] at room temperature. They were then pelleted, washed and suspended in PBS to a final concentration of 1×10^6/ml and analyzed by flow cytometry (BD FACS Aria, BD Biosciences, San Jose, Calif.).

[6] = test system: A2780/T cells; experiment: Cell cycle analysis by flow cytometry in A2780/T; type: cell-based, human; conditions: 48 h
Experimental: as §1

[7] = test system: p53; experiment: Western blot of p53 expression; type: cell-based, human; conditions: PTX in combination with tangeretin
Experimental: The total cellular samples were harvested and rinsed twice with ice-cold PBS buffer. Cell extracts were lysed in RIPA buffer (50 mM Tris (pH 7.4), 150 mM NaCl, 1% Triton X-100, 1% sodium deoxycholate, 0.1% SDS, sodium orthovanadate, sodium fluoride and EDTA) containing protease inhibitor cocktails (Roche Life Science, USA). Protein concentration was determined using the BCA protein assay kit. Equal amounts of cell lysates were resolved by SDS-PAGE and subsequently electrophoretically transferred onto PVDF membranes (Millipore, Darmstadt, Germany). After blocking in tris-buffered saline containing 0.1% of Tween20 (TBST) with 5% (w/v) skim milk (Nestle Carnation, New Zealand) for 2 h at room temperature, the membranes were incubated with primary and secondary antibodies and subsequently visualized with an enhanced chemiluminescence detection kit (Thermo Scientific™ SuperSignal™ West Pico Chemiluminescent Substrate, USA). β-Actin was used as the loading control for the experimental data analysis.

[8] = test system: A2780/T cells; experiment: Intracellular accumulation of DOX and Flutax-2 in A2780/T; type: cell-based, human; conditions: 8 h, 7.53 μM tangeretin or 20 μM QND
Experimental: cells (5×10^6) were cultured on the cover glass (ISO LAB 20×20 mm). […] After treatment, cells were fixed in 4 wt % formaldehyde (Sigma-Aldrich). Nuclear DNA was stained with 1 μg/mL blue-fluorescent DAPI (1 mg/mL in H2O stock solution; Invitrogen D1306). One drop of fluorescent preservation solution (fluorsave reagent, CALBIOCHEM) was added before observation. Imaging was carried out for comparing the intracellular accumulation of DOX and flutax-2 with a Fluorescence Microscopy (Leica DM2500, Leica, Germany). […] Cells were detached, re-suspended in 500 μl of PBS after washed twice with cold PBS, and analyzed by flow cytometry (BD FACS Aria, BD Biosciences, San Jose, Calif.). Excitation and emission wavelengths (nm) used for DOX and flutax-2 were as follows: 480 to 585; and 496 to 524.

[9] = A549, 48 h, A549/T, 48 h, drug alone, read-out: IC50 ± SD
[10] = A549, A549/T, +7.53 μM TG, read-out: IC50 ± SD
[11] = A549, A549/T, +0.84 μM TG, read-out: IC50 ± SD
[12] = A549, A549/T, +5.21 μM TG, read-out: IC50 ± SD
[13] = 0.94 μM PTX with 7.53 μM tangeretin
[14] = 0.94 μM PTX, absence of tangeretin

Structure (SMILES): O=c1[nH]cc(F)c(=O)[nH]1 [5-Fluorouracil, 5-fluorouracil]
- fold reversal ([1]; A549/T, +0.83 μM TG): 1.34
- fold reversal ([1]; A549/T, +2.51 μM TG): 2.12
- fold reversal ([1]; A549/T, +7.53 μM TG): 6.05
- fold reversal ([1]; A549/T, drug alone): 1.00
- IC50 [1, 9]: 142 ± 23.1 µM
- IC50 ([1]; A549, A549/T, +0.83 μM TG, read-out: IC50 ± SD): 106 ± 8.63 µM
- IC50 ([1]; A549, A549/T, +2.51 μM TG, read-out: IC50 ± SD): 67 ± 5.44 µM
- IC50 [1, 10]: 23.8 ± 1.93 µM
- fold reversal ([2]; +0.83 μM TG): 1.19
- fold reversal ([2]; +2.51 μM TG): 2.12
- fold reversal ([2]; +7.53 μM TG): 6.31
- fold reversal ([2]; drug alone): 1.00
- IC50 ([2]; 48 h, drug alone): 179 ± 29 µM
- IC50 ([2]; +0.83 μM TG): 152 ± 36.7 µM
- IC50 ([2]; +2.51 μM TG): 84.3 ± 6.56 µM
- IC50 ([2]; +7.53 μM TG): 28.4 ± 4.6 µM

Structure (SMILES): COc1cccc2c1C(=O)c1c(O)c3c(c(O)c1C2=O)C[C@@](O)(C(C)=O)C[C@@H]3O[C@H]1C[C@H](N)[C@H](O)[C@H](C)O1 [Daunorubicin, daunorubicin]
- fold reversal ([1]; A549/T, +0.84 μM TG): 1.41
- fold reversal ([1]; A549/T, +5.21 μM TG): 2.25
- fold reversal ([1]; A549/T, +7.53 μM TG): 6.36
- fold reversal ([1]; A549/T, drug alone): 1.00
- IC50 ([1]; A549, 48 h, read-out: IC50 ± SD, A549/T, 48 h, drug alone): 6.7 ± 0.54 µM
- IC50 ([1]; A549, read-out: IC50 ± SD, A549/T, +0.84 μM TG): 4.74 ± 0.38 µM
- IC50 ([1]; A549, read-out: IC50 ± SD, A549/T, +5.21 μM TG): 2.99 ± 0.24 µM
- IC50 ([1]; A549, read-out: IC50 ± SD, A549/T, +7.53 μM TG): 1.06 ± 0.08 µM
- fold reversal ([2]; +0.84 μM TG): 1.34
- fold reversal ([2]; +5.21 μM TG): 2.25
- fold reversal ([2]; +7.53 μM TG): 8.03
- fold reversal ([2]; drug alone): 1.00
- IC50 ([2]; 48 h, drug alone): 7.51 ± 0.61 µM
- IC50 ([2]; +0.84 μM TG): 5.66 ± 0.92 µM
- IC50 ([2]; +5.21 μM TG): 3.4 ± 0.82 µM
- IC50 ([2]; +7.53 μM TG): 0.96 ± 0.23 µM

Structure (SMILES): CC(=O)O[C@@]12CO[C@@H]1C[C@H](O)[C@@]1(C)C(=O)[C@H](O)C3=C(C)[C@@H](OC(=O)[C@H](O)[C@@H](NC(=O)OC(C)(C)C)c4ccccc4)C[C@@](O)([C@@H](OC(=O)c4ccccc4)[C@H]21)C3(C)C [Docetaxel, docetaxel]
- fold reversal ([1]; A549/T, +0.84 μM TG): 1.58
- fold reversal ([1]; A549/T, +5.21 μM TG): 3.82
- fold reversal ([1]; A549/T, +7.53 μM TG): 12.07
- fold reversal ([1]; A549/T, drug alone): 1.00
- IC50 [1, 9]: 12.7 ± 2.06 µM
- IC50 [1, 11]: 7.8 ± 1.29 µM
- IC50 [1, 12]: 3.36 ± 0.28 µM
- IC50 [1, 10]: 1.06 ± 0.08 µM
- fold reversal ([2]; +0.84 μM TG): 1.99
- fold reversal ([2]; +5.21 μM TG): 7.95
- fold reversal ([2]; +7.53 μM TG): 33.66
- fold reversal ([2]; drug alone): 1.00
- IC50 ([2]; 48 h, drug alone): 28.4 ± 4.59 µM
- IC50 ([2]; +0.84 μM TG): 14.2 ± 2.31 µM
- IC50 ([2]; +5.21 μM TG): 3.57 ± 0.58 µM
- IC50 ([2]; +7.53 μM TG): 0.84 ± 0.07 µM

Structure (SMILES): CC(=O)O[C@H]1C(=O)[C@@]2(C)[C@H]([C@H](OC(=O)c3ccccc3)[C@]3(O)C[C@H](OC(=O)[C@H](O)[C@@H](NC(=O)c4ccccc4)c4ccccc4)C(C)=C1C3(C)C)[C@]1(OC(C)=O)CO[C@@H]1C[C@@H]2O [Paclitaxel, paclitaxel]
- fold reversal ([1]; A549/T, +0.84 μM TG): 2.67
- fold reversal ([1]; A549/T, +2.51 μM TG): 9.52
- fold reversal ([1]; A549/T, +5.21 μM TG): 9.52
- fold reversal ([1]; A549/T, +7.53 μM TG): 80.05
- fold reversal ([1]; A549/T, drug alone): 1.00
- IC50 [1, 9]: 2.53 ± 0.41 µM
- IC50 [1, 11]: 1.03 ± 0.33 µM
- IC50 [1, 12]: 0.27 ± 0.02 µM
- IC50 [1, 10]: 0.03 ± 0.01 µM
- EC50 ([3]; Homo sapiens, CalcuSyn simulation, alone or in combination, read-out: Dose PTX at Fa 0.5 (ED50)): 3.61 µM
- decrease for the ED50 dose of PTX ([3]; combination with tangeretin versus PTX alone): 18 fold
- apoptosis induction, single treatment [4]: did not show apoptosis induction
- G1 phase content ([5]; 24 hours): 30.95%
- G2-M content ([5]; 24 hours): 52.63%
- G1 phase content ([5]; 48 hours): 14.13%
- G2-M content ([5]; 48 hours): 62.33%
- G1 phase content ([5]; 72 hours): 13.07%
- G2-M content ([5]; 72 hours): 74.20%
- G1 phase cells [6, 13]: 13.87%
- G2 phase cells [6, 13]: 72.37%
- G1 phase cells [6, 14]: 68.30%
- G2 phase cells [6, 14]: 18.87%
- accumulation of p53 [7]: accumulation of p53
- mean IC50 in A2780/T greater than that of A2780 (degree of resistance) ([2]; A2780/T versus parental A2780): 501 fold
- fold reversal ([2]; +0.84 μM TG): 1.59
- fold reversal ([2]; +5.21 μM TG): 5.66
- fold reversal ([2]; +7.53 μM TG): 18.88
- fold reversal ([2]; drug alone): 1.00
- IC50 ([2]; 48 h, drug alone): 2.51 µM
- IC50 ([2]; +0.84 μM TG): 1.58 ± 0.04 µM
- IC50 ([2]; +5.21 μM TG): 0.45 ± 0.07 µM
- IC50 ([2]; +7.53 μM TG): 0.14 ± 0.02 µM

Structure (SMILES): C=C[C@H]1C[N@@]2CC[C@H]1C[C@@H]2[C@@H](O)c1ccnc2ccc(OC)cc12 [QND, quinidine]
- intracellular accumulations of DOX and Flutax-2 [8]: higher than that of untreated A2780/T
